Test results as given in PubChem BioAssay (NCI).
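GI50: concentration for 50% inhibition of growth. TGI is the concentration that stops growth completely.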

Tests used:
Experiment in all cases: growth of human tumour cells (NCI), 384-well format
SK-MEL-28 melanoma = test system: SK-MEL-28 melanoma
MCF7 breast = test system: MCF7 breast
OVCAR-8 ovarian = test system: OVCAR-8 ovarian
786-0 renal = test system: 786-0 renal
SF-539 CNS = test system: SF-539 CNS
HCT-15 colon = test system: HCT-15 colon
IGROV1 ovarian = test system: IGROV1 ovarian
HT29 colon = test system: HT29 colon
MDA-MB-435 melanoma = test system: MDA-MB-435 melanoma
RPMI-8226 leukemia = test system: RPMI-8226 leukemia
SR leukemia = test system: SR leukemia
COLO 205 colon = test system: COLO 205 colon
SF-268 CNS = test system: SF-268 CNS
LOX IMVI melanoma = test system: LOX IMVI melanoma
BT-549 breast = test system: BT-549 breast
CCRF-CEM leukemia = test system: CCRF-CEM leukemia
ACHN renal = test system: ACHN renal
SK-OV-3 ovarian = test system: SK-OV-3 ovarian
MDA-MB-468 breast = test system: MDA-MB-468 breast
SW-620 colon = test system: SW-620 colon
CAKI-1 renal = test system: CAKI-1 renal
TK-10 renal = test system: TK-10 renal
K-562 leukemia = test system: K-562 leukemia
UACC-62 melanoma = test system: UACC-62 melanoma
NCI-H322M lung = test system: NCI-H322M lung
A549 NSCLC = test system: A549 NSCLC
EKVX NSCLC = test system: EKVX NSCLC
SN12C renal = test system: SN12C renal
UO-31 renal = test system: UO-31 renal

Work on `Nc1ncnc2c1c(-c1cccc(OCc3ccccc3)c1)cn2C1CC(CN2CCC2)C1` (stereo not drawn) yielded a GI50 (SK-MEL-28 melanoma) of 1430 nM, a TGI (SK-MEL-28 melanoma) of 2740 nM and a GI50 (MCF7 breast) of 360 nM. The TGI (MCF7 breast) was 1680 nM, the GI50 (OVCAR-8 ovarian) was 1610 nM and the TGI (OVCAR-8 ovarian) was 3010 nM. The GI50 ([…]-0 renal) was 1610 nM, the TGI (786-0 renal) was 2970 nM and the GI50 (SF-539 CNS) was 1760 nM. For the same compound, the TGI (SF-539 CNS) was 3150 nM, the GI50 (HCT-15 colon) was 1280 nM and the TGI (HCT-15 colon) was 2590 nM. The GI50 (IGROV1 ovarian) was 2180 nM, the TGI (IGROV1 ovarian) was 4870 nM and the GI50 (HT29 colon) was 336 nM. It also gave a TGI (HT29 colon) of 1720 nM, a GI50 (MDA-MB-435 melanoma) of 1280 nM and a TGI (MDA-MB-435 melanoma) of 2570 nM. The GI50 (RPMI-8226 leukemia) was 1830 nM, the TGI (RPMI-8226 leukemia) was 3230 nM and the GI50 (SR leukemia) was 1650 nM. It also gave a TGI (SR leukemia) of 3020 nM, a GI50 (COLO 205 colon) of 327 nM and a TGI (COLO 205 colon) of 1440 nM. For the same compound, the GI50 (SF-268 CNS) was 1810 nM, the TGI (SF-268 CNS) was 3230 nM and the GI50 (LOX IMVI melanoma) was 1610 nM. For the same compound, the TGI (LOX IMVI melanoma) was 2970 nM, the GI50 (BT-549 breast) was 1370 nM and the TGI (BT-549 breast) was 2680 nM. It also gave a GI50 (CCRF-CEM leukemia) of 2080 nM, a TGI (CCRF-CEM leukemia) of 3520 nM and a GI50 (ACHN renal) of 1910 nM. For the same compound, the TGI (ACHN renal) was 3710 nM, the GI50 (SK-OV-3 ovarian) was 1750 nM and the TGI (SK-OV-3 ovarian) was 3160 nM. The GI50 (MDA-MB-468 breast) was 1330 nM, the TGI (MDA-MB-468 breast) was 2630 nM and the GI50 (SW-620 colon) was 1330 nM. For the same compound, the TGI (SW-620 colon) was 2630 nM, the GI50 (CAKI-1 renal) was 1650 nM and the TGI (CAKI-1 renal) was 3220 nM. The GI50 (TK-10 renal) was 1610 nM, the TGI (TK-10 renal) was 3240 nM and the GI50 (K-562 leukemia) was 1690 nM. For the same compound, the TGI (K-562 leukemia) was 3100 nM, the GI50 (UACC-62 melanoma) was 1510 nM and the TGI (UACC-62 melanoma) was 2840 nM. It also gave a GI50 (NCI-H322M lung) of 1650 nM, a TGI (NCI-H322M lung) of 4490 nM and a GI50 (A549 NSCLC) of 1550 nM. For the same compound, the TGI (A549 NSCLC) was 3070 nM, the GI50 (EKVX NSCLC) was 1410 nM and the TGI (EKVX NSCLC) was 3100 nM. It also gave a GI50 (SN12C renal) of 2310 nM, a TGI (SN12C renal) of 5800 nM and a GI50 (UO-31 renal) of 1610 nM. For the same compound, the TGI (UO-31 renal) was 3020 nM.
